# Reference: patent publication US12257237B2 (priority 2017, dated 2025)
# Where “and” joins values, the source holds several entries; their conditions need not be identical. Identical values can stand only once.
# System: DD013 dedifferentiated liposarcoma
# Experiment: Antitumour activity in DD013 dedifferentiated liposarcoma xenograft model
# Format: in vivo, Athymic nude mice
# Experimental: Experiments were performed with female Athymic nude mice, 9-10 weeks old obtained from Harlan Laboratories (Udine, Italy). They were maintained under Specific Pathogen Free conditions with constant temperature and humidity, according to the institutional guidelines.
# Tumour growth mice was monitored two/three times a week (depending on tumour growth rate, to avoid unnecessary stress to the animals) by Vernier caliper. Mice were sacrificed when tumour reached a mean weight of 2±0.5 gr. The antitumour activity will be expressed as T/C %, where T and C were the mean tumour weight of treated and control groups, respectively. Mice were monitored daily and weighted at least two times a week. Tolerability was evaluated on the basis of body weight loss (BWL) and clinical observation.
# Statistical analysis was performed with GraphPad Prism version 6.01 software (GraphPad software, Inc., La Jolla, CA, USA). ANOVA test was performed to evaluate if there were statistically significant differences between treated and control groups.
# Briefly, xenografts were obtained by transplanting 3-4 mm tumour fragments s.c. in the flanks of mice. The growing tumour masses were measured with the aid of a Vernier caliper, and the tumour weights (TW, 1 mm^3=1 mg) were calculated by the formula: length×(width) 2/2. When tumour load achieved about 200-400 mg, mice were randomized into the experimental groups.
smiles,measurement,setting,value
"Cn1c(CCCCCCC(=O)NO)nc2cc(N(CCCl)CCCl)ccc21 [EDO-S101, 7-(5-(bis(2-chloroethyl)amino)-1-methyl-1H-benzo[d]imidazol-2-yl)-N-hydroxyheptanamide]","DD0113 tumour weight, Mean","EDO60: EDO-S101 60 mg/kg q7dx3, day 87 from inoculum",393.6 mg
same,"DD0113 tumour weight, Mean","EDO60: EDO-S101 60 mg/kg q7dx3, day 90 from inoculum",436.6 mg
same,"DD0113 tumour weight, individual mouse","EDO60: EDO-S101 60 mg/kg q7dx3, day 90 from inoculum, 60 mg/kg",118.4 mg and 56.3 mg and 626.5 mg and 82.7 mg and 234.7 mg and 492.6 mg and 49.6 mg
same,"DD0113 tumour weight, Mean","EDO60: EDO-S101 60 mg/kg q7dx3, day 94 from inoculum",476.6 mg
same,"DD0113 tumour weight, individual mouse","EDO60: EDO-S101 60 mg/kg q7dx3, day 94 from inoculum, 60 mg/kg",135.6 mg and 73.5 mg and 693.0 mg and 95.1 mg and 279.8 mg and 598.8 mg and 43.4 mg
same,"DD0113 tumour weight, Mean","EDO60: EDO-S101 60 mg/kg q7dx3, day 98 from inoculum",451.5 mg
same,"DD0113 tumour weight, individual mouse","EDO60: EDO-S101 60 mg/kg q7dx3, day 98 from inoculum, 60 mg/kg",113.6 mg and 57.9 mg and 655.0 mg and 70.1 mg and 225.1 mg and 584.9 mg and 30.7 mg
same,"DD0113 tumour weight, Mean","EDO60: EDO-S101 60 mg/kg q7dx3, day 100 from inoculum",518.4 mg
same,"DD0113 tumour weight, individual mouse","EDO60: EDO-S101 60 mg/kg q7dx3, day 100 from inoculum, 60 mg/kg",122.1 mg and 86.5 mg and 751.1 mg and 87.0 mg and 297.7 mg and 718.0 mg and 40.7 mg
same,"DD0113 tumour weight, Mean","EDO60: EDO-S101 60 mg/kg q7dx3, day 103 from inoculum",503.0 mg
same,"DD0113 tumour weight, individual mouse","EDO60: EDO-S101 60 mg/kg q7dx3, day 103 from inoculum, 60 mg/kg",70.5 mg and 747.9 mg and 89.6 mg and 231.0 mg and 670.9 mg and 37.5 mg
same,"DD0113 tumour weight, Mean","EDO60: EDO-S101 60 mg/kg q7dx3, day 111 from inoculum",502.0 mg
same,"DD0113 tumour weight, individual mouse","EDO60: EDO-S101 60 mg/kg q7dx3, day 111 from inoculum, 60 mg/kg",90.0 mg and 45.6 mg and 813.1 mg and 62.2 mg and 245.9 mg and 686.9 mg and 33.9 mg
same,"DD0113 tumour weight, Mean","EDO60: EDO-S101 60 mg/kg q7dx3, day 114 from inoculum",624.6 mg
same,"DD0113 tumour weight, individual mouse","EDO60: EDO-S101 60 mg/kg q7dx3, day 114 from inoculum, 60 mg/kg",131.7 mg and 81.4 mg and 999.4 mg and 119.1 mg and 284.3 mg and 935.9 mg and 61.0 mg
same,"DD0113 tumour weight, Mean","EDO60: EDO-S101 60 mg/kg q7dx3, day 118 from inoculum",747.2 mg
same,"DD0113 tumour weight, individual mouse","EDO60: EDO-S101 60 mg/kg q7dx3, day 118 from inoculum, 60 mg/kg",157.8 mg and 79.8 mg and 1342.5 mg and 134.3 mg and 364.6 mg and 1024.5 mg and 64.1 mg
same,"DD0113 tumour weight, Mean","EDO80: EDO-S101 80 mg/kg single dose, day 23 from inoculum",198.0 mg
same,"DD0113 tumour weight, individual mouse","EDO80: EDO-S101 80 mg/kg single dose, day 23 from inoculum, 80 mg/kg",361.8 mg and 272.9 mg and 241.0 mg and 225.2 mg and 191.6 mg
same,"DD0113 tumour weight, Mean","EDO80: EDO-S101 80 mg/kg single dose, day 26 from inoculum",253.1 mg
same,"DD0113 tumour weight, individual mouse","EDO80: EDO-S101 80 mg/kg single dose, day 26 from inoculum, 80 mg/kg",410.2 mg and 433.7 mg and 275.2 mg and 338.5 mg and 196.8 mg
same,"DD0113 tumour weight, Mean","EDO80: EDO-S101 80 mg/kg single dose, day 29 from inoculum",251.2 mg
same,"DD0113 tumour weight, individual mouse","EDO80: EDO-S101 80 mg/kg single dose, day 29 from inoculum, 80 mg/kg",399.5 mg and 447.9 mg and 310.3 mg and 335.3 mg and 179.1 mg
same,"DD0113 tumour weight, Mean","EDO80: EDO-S101 80 mg/kg single dose, day 33 from inoculum",251.0 mg
same,"DD0113 tumour weight, individual mouse","EDO80: EDO-S101 80 mg/kg single dose, day 33 from inoculum, 80 mg/kg",456.2 mg and 408.9 mg and 293.6 mg and 271.4 mg and 220.9 mg
same,"DD0113 tumour weight, Mean","EDO80: EDO-S101 80 mg/kg single dose, day 36 from inoculum",256.4 mg
same,"DD0113 tumour weight, individual mouse","EDO80: EDO-S101 80 mg/kg single dose, day 36 from inoculum, 80 mg/kg",466.8 mg and 431.6 mg and 284.2 mg and 280.3 mg and 194.9 mg
same,"DD0113 tumour weight, Mean","EDO80: EDO-S101 80 mg/kg single dose, day 40 from inoculum",283.7 mg
same,"DD0113 tumour weight, individual mouse","EDO80: EDO-S101 80 mg/kg single dose, day 40 from inoculum, 80 mg/kg",569.1 mg and 476.7 mg and 364.0 mg and 279.7 mg and 216.2 mg
same,"DD0113 tumour weight, Mean","EDO80: EDO-S101 80 mg/kg single dose, day 43 from inoculum",284.8 mg
same,"DD0113 tumour weight, individual mouse","EDO80: EDO-S101 80 mg/kg single dose, day 43 from inoculum, 80 mg/kg",500.6 mg and 547.3 mg and 355.5 mg and 255.8 mg and 227.9 mg
same,"DD0113 tumour weight, Mean","EDO80: EDO-S101 80 mg/kg single dose, day 47 from inoculum",326.3 mg
same,"DD0113 tumour weight, individual mouse","EDO80: EDO-S101 80 mg/kg single dose, day 47 from inoculum, 80 mg/kg",626.2 mg and 643.5 mg and 338.2 mg and 321.9 mg and 275.0 mg
same,"DD0113 tumour weight, Mean","EDO80: EDO-S101 80 mg/kg single dose, day 50 from inoculum",384.4 mg
same,"DD0113 tumour weight, individual mouse","EDO80: EDO-S101 80 mg/kg single dose, day 50 from inoculum, 80 mg/kg",686.0 mg and 716.7 mg and 447.7 mg and 447.8 mg and 297.1 mg
same,"DD0113 tumour weight, Mean","EDO80: EDO-S101 80 mg/kg single dose, day 54 from inoculum",418.9 mg
same,"DD0113 tumour weight, Mean","EDO80: EDO-S101 80 mg/kg single dose, day 58 from inoculum",511.4 mg
same,"DD0113 tumour weight, Mean","EDO80: EDO-S101 80 mg/kg single dose, day 62 from inoculum",549.2 mg
same,"DD0113 tumour weight, Mean","EDO80: EDO-S101 80 mg/kg single dose, day 65 from inoculum",540.3 mg
same,"DD0113 tumour weight, Mean","EDO80: EDO-S101 80 mg/kg single dose, day 69 from inoculum",531.6 mg
same,"DD0113 tumour weight, Mean","EDO80: EDO-S101 80 mg/kg single dose, day 72 from inoculum",581.5 mg
same,"DD0113 tumour weight, Mean","EDO80: EDO-S101 80 mg/kg single dose, day 75 from inoculum",560.9 mg
same,"DD0113 tumour weight, Mean","EDO80: EDO-S101 80 mg/kg single dose, day 79 from inoculum",564.1 mg
same,"DD0113 tumour weight, Mean","EDO80: EDO-S101 80 mg/kg single dose, day 83 from inoculum",475.0 mg
same,"DD0113 tumour weight, Mean","EDO80: EDO-S101 80 mg/kg single dose, day 87 from inoculum",594.1 mg
same,"DD0113 tumour weight, Mean","EDO80: EDO-S101 80 mg/kg single dose, day 90 from inoculum",638.8 mg
same,"DD0113 tumour weight, Mean","EDO80: EDO-S101 80 mg/kg single dose, day 94 from inoculum",826.0 mg
same,"DD0113 tumour weight, Mean","EDO80: EDO-S101 80 mg/kg single dose, day 98 from inoculum",927.2 mg
same,"DD0113 tumour weight, Mean","EDO80: EDO-S101 80 mg/kg single dose, day 100 from inoculum",1209.8 mg
same,"DD0113 tumour weight, Mean","EDO80: EDO-S101 80 mg/kg single dose, day 103 from inoculum",1301.2 mg
